Patent US20260356819A1, “OXOISOINDOLINYL-SUBSTITUTED […] DERIVATIVE AND USE THEREOF” (GLUETACS THERAPEUTICS (SHANGHAI) CO., LTD., priority 2023, published 2026)

Columns and labels:
Assay type in all cases: cell-based
Conditions in all cases: compounds at 50 nM and 500 nM
IKZF1 = target: T1, IKZF1 (Homo sapiens, UniProt Q13422+Q96SW2); test: Western blot degradation of IKZF1 in hPBMCs (24 h)
T1 construct: The supernatant was aspirated as the extracted total cell protein; endogenous in cells; host or cells: human peripheral blood mononuclear cells (hPBMCs)
In short: (§1)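 In this assay, each compound was incubated with human PBMCs for 24 h at 50 nM and 500 nM. Target levels were measured by Western blot densitometry normalised to an internal control.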

WEE1 = target: T2, WEE1 (Homo sapiens, UniProt P30291+Q96SW2); test: Western blot degradation of WEE1 in hPBMCs (24 h)
T2 construct: The supernatant was aspirated as the extracted total cell protein; endogenous in cells; host or cells: human peripheral blood mononuclear cells (hPBMCs)
In short: as §1

CK1α = target: T3, CK1α (Homo sapiens, UniProt P48729+Q96SW2); test: Western blot degradation of CK1α in hPBMCs (24 h)
T3 construct: The supernatant was aspirated as the extracted total cell protein; endogenous in cells; host or cells: human peripheral blood mononuclear cells (hPBMCs)
In short: as §1

GSPT1 = target: T4, GSPT1 (Homo sapiens, UniProt P15170+Q96SW2); test: Western blot degradation of GSPT1 in hPBMCs (24 h)
T4 construct: The supernatant was aspirated as the extracted total cell protein; endogenous in cells; host or cells: human peripheral blood mononuclear cells (hPBMCs)
In short: as §1

IKZF3 = target: T5, IKZF3 (Homo sapiens, UniProt Q96SW2+Q9UKT9); test: Western blot degradation of IKZF3 in hPBMCs (24 h)
T5 construct: The supernatant was aspirated as the extracted total cell protein; endogenous in cells; host or cells: human peripheral blood mononuclear cells (hPBMCs)
In short: as §1

IKZF2 = target: T6, IKZF2 (Homo sapiens, UniProt Q96SW2+Q9UKS7); test: Western blot degradation of IKZF2 in hPBMCs (24 h)
T6 construct: The supernatant was aspirated as the extracted total cell protein; endogenous in cells; host or cells: human peripheral blood mononuclear cells (hPBMCs)
In short: as §1

T3 sequence (P48729 whole entry): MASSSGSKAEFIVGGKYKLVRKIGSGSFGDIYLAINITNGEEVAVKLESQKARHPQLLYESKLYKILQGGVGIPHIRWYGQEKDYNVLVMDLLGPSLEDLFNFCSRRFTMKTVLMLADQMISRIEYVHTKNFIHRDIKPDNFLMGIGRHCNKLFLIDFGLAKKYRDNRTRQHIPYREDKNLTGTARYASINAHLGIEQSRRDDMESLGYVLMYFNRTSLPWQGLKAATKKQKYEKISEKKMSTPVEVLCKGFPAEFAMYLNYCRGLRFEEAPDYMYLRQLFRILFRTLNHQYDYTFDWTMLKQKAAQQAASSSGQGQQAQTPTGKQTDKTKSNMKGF
T3 sequence (Q96SW2 whole entry): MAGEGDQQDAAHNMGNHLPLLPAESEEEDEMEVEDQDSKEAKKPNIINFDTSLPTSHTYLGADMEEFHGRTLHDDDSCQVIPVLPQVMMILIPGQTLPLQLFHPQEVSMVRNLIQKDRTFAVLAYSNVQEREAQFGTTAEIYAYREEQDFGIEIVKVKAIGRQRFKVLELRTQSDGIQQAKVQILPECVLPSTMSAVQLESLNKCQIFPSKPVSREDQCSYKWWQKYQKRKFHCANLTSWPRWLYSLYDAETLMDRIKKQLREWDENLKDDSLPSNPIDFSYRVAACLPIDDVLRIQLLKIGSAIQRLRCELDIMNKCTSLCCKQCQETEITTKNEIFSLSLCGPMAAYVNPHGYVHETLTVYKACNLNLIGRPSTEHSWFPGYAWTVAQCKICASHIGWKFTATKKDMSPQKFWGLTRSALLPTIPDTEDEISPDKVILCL
T3 sequence (Q16531 whole entry partner): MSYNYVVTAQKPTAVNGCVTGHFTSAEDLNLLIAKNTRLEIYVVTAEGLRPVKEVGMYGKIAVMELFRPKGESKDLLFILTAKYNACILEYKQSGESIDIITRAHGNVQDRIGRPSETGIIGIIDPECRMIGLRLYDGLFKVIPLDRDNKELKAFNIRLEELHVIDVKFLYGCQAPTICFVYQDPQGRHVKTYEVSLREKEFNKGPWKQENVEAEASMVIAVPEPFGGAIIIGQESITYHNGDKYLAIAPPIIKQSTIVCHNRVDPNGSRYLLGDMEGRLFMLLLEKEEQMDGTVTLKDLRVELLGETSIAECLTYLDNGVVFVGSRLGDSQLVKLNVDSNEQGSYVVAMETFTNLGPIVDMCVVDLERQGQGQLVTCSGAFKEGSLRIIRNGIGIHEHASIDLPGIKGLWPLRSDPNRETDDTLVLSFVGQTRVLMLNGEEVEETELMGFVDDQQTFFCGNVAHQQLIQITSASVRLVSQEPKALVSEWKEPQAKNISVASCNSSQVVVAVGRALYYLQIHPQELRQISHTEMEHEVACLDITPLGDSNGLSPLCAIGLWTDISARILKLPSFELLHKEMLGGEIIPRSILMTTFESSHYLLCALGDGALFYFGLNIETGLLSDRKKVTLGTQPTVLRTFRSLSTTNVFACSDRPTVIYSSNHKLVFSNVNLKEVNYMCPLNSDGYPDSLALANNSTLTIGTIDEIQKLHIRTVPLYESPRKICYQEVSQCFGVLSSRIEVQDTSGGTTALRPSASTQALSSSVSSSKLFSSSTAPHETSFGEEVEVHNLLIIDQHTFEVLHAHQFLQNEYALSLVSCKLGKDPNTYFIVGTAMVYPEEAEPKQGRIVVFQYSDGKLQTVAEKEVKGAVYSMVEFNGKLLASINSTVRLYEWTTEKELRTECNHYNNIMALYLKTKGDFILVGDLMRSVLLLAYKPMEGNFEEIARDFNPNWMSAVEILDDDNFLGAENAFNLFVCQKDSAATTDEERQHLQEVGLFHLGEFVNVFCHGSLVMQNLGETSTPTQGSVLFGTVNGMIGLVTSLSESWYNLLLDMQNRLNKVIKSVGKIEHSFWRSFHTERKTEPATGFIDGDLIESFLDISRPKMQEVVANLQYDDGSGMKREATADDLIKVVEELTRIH
T6 sequence (Q9UKS7 whole entry): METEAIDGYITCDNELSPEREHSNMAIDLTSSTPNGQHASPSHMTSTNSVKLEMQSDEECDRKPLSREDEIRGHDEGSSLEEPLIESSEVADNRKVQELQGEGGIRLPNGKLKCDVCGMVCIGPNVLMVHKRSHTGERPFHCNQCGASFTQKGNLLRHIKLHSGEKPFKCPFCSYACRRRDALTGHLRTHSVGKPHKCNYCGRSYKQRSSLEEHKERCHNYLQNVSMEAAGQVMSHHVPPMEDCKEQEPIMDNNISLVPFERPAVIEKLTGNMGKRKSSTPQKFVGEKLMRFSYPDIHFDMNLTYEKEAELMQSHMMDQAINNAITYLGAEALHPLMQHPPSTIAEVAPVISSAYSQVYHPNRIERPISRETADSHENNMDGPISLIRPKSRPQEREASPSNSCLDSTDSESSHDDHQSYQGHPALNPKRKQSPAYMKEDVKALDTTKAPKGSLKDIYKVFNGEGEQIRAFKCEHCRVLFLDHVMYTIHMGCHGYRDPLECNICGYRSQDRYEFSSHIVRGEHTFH
T6 sequence (Q96SW2 whole entry): as the sequence (Q96SW2 whole entry) above
T6 sequence (Q16531 whole entry partner): as the sequence (Q16531 whole entry partner) above
T5 sequence (Q9UKT9 whole entry): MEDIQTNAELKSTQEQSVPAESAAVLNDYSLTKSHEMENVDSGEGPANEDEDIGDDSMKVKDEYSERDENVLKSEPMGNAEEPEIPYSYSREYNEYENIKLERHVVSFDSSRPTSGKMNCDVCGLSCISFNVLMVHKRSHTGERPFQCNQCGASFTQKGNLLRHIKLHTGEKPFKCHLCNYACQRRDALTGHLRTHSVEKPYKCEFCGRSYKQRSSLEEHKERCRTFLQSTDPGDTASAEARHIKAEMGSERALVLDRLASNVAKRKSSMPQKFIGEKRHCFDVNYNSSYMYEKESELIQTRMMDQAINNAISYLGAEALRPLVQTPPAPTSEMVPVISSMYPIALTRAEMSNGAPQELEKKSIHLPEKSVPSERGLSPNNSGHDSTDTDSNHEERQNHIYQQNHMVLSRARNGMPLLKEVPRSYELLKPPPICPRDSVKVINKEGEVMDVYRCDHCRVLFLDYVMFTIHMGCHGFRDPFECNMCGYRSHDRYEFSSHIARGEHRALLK
T5 sequence (Q96SW2 whole entry): as the sequence (Q96SW2 whole entry) above
T5 sequence (Q16531 whole entry partner): as the sequence (Q16531 whole entry partner) above
T1 sequence (Q13422 whole entry): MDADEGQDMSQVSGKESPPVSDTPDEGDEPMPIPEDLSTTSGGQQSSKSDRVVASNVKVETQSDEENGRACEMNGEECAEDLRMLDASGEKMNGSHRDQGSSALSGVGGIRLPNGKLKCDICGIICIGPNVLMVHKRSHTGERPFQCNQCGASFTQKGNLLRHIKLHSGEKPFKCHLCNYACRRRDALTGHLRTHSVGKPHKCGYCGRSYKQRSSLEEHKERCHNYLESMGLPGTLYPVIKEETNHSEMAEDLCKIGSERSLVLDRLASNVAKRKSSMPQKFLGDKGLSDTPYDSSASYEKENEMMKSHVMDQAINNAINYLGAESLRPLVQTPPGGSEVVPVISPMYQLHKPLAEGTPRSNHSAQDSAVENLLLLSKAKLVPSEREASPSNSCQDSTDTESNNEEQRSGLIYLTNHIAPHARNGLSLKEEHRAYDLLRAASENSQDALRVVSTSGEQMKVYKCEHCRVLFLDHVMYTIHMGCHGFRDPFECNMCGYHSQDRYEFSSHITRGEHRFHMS
T1 sequence (Q96SW2 whole entry): as the sequence (Q96SW2 whole entry) above
T1 sequence (Q16531 whole entry partner): as the sequence (Q16531 whole entry partner) above
T2 sequence (P30291 whole entry): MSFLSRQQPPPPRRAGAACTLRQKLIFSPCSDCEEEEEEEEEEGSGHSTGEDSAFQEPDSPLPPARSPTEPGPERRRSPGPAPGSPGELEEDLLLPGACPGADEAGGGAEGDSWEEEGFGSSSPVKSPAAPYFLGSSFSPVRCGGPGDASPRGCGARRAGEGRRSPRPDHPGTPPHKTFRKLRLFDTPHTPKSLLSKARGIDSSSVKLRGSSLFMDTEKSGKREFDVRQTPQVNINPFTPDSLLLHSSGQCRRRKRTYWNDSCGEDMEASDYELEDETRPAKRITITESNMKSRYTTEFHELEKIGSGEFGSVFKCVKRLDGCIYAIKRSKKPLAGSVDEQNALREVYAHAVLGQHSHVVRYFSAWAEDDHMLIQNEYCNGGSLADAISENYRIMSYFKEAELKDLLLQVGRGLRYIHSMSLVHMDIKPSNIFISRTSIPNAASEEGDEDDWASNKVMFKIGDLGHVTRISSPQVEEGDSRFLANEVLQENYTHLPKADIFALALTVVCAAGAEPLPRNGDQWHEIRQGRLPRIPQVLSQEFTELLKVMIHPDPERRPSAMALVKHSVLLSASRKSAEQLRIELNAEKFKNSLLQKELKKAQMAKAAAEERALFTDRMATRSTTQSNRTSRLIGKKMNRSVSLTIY
T2 sequence (Q96SW2 whole entry): as the sequence (Q96SW2 whole entry) above
T2 sequence (Q16531 whole entry partner): as the sequence (Q16531 whole entry partner) above

| Compound | IKZF1 substrate protein remaining % (IKZF1) | WEE1 substrate protein remaining % (WEE1) | CK1α substrate protein remaining % (CK1α) | GSPT1 substrate protein remaining % (GSPT1) | IKZF3 substrate protein remaining % (IKZF3) | IKZF2 substrate protein remaining % (IKZF2) |
| --- | --- | --- | --- | --- | --- | --- |
| CC1(C)CCC(CN2CC3CCC2CN3Cc2ccc3c(c2)C(=O)N(N2CCC(=O)NC2=O)C3=O)=C(c2ccc(Cl)cc2)C1 (stereo not drawn) [GT-07300, 5-((5-((4′-chloro-5,5-dimethyl-3,4,5,6-tetrahydro-[1,1′-biphenyl]-2-yl)methyl)-2,5-diazabicyclo[2.2.2]octan-2-yl)methyl)-2-(2,4-dioxotetrahydropyrimidin-1(2H)-yl)isoindoline-1,3-dione] | B (80%< substrate protein remaining % ≤100%) | A (0% ≤ substrate protein remaining % ≤80%) | B (80%< substrate protein remaining % ≤100%) | B (80%< substrate protein remaining % ≤100%) | B (80%< substrate protein remaining % ≤100%) | B (80%< substrate protein remaining % ≤100%) |
| CC1(C)CCC(CN2CCN(Cc3ccc4c(c3)C(=O)N(N3CCC(=O)NC3=O)C4=O)C(C(F)(F)F)C2)=C(c2ccc(Cl)cc2)C1 (stereo not drawn) [GT-07301, 5-((4-((4′-chloro-5,5-dimethyl-3,4,5,6-tetrahydro-[1,1′-biphenyl]-2-yl)methyl)-2-(trifluoromethyl)piperazin-1-yl)methyl)-2-(2,4-dioxotetrahydropyrimidin-1(2H)-yl)isoindoline-1,3-dione] | B (80%< substrate protein remaining % ≤100%) | B (80%< substrate protein remaining % ≤100%) | B (80%< substrate protein remaining % ≤100%) | A (0% ≤ substrate protein remaining % ≤80%) | B (80%< substrate protein remaining % ≤100%) | B (80%< substrate protein remaining % ≤100%) |
| O=C1CCN(N2C(=O)c3ccc(CN4CCN(CC5=C(c6ccc(F)cc6)CCCC5)CC4)cc3C2=O)C(=O)N1 [GT-07302, 2-(2,4-dioxotetrahydropyrimidin-1(2H)-yl)-5-((4-((4′-fluoro-3,4,5,6-tetrahydro-[1,1′-biphenyl]-2-yl)methyl)piperazin-1-yl)methyl)isoindoline-1,3-dione] | B (80%< substrate protein remaining % ≤100%) | A (0% ≤ substrate protein remaining % ≤80%) | B (80%< substrate protein remaining % ≤100%) | B (80%< substrate protein remaining % ≤100%) | B (80%< substrate protein remaining % ≤100%) | B (80%< substrate protein remaining % ≤100%) |
| CC1(C)CC(c2ccc(Cl)cc2)=C(CN2CCN(Cc3ccc4c(c3)C(=O)N(N3CCC(=O)NC3=O)C4=O)CC2)CO1 [GT-07304, 5-((4-((4-(4-chlorophenyl)-6,6-dimethyl-5,6-dihydro-2H-pyran-3-yl)methyl)piperazin-1-yl)methyl)-2-(2,4-dioxotetrahydropyrimidin-1(2H)-yl)isoindoline-1,3-dione] | B (80%< substrate protein remaining % ≤100%) | B (80%< substrate protein remaining % ≤100%) | A (0% ≤ substrate protein remaining % ≤80%) | A (0% ≤ substrate protein remaining % ≤80%) | B (80%< substrate protein remaining % ≤100%) | B (80%< substrate protein remaining % ≤100%) |
| Cc1ccsc1C1CCN(Cc2ccc3c(c2)CN(N2CCC(=O)NC2=O)C3=O)CC1 [GT-07305, 1-(5-((4-(3-methylthiophen-2-yl)piperidin-1-yl)methyl)-1-oxoisoindolin-2-yl)dihydropyrimidine-2,4(1H,3H)-dione] | B (80%< substrate protein remaining % ≤100%) | B (80%< substrate protein remaining % ≤100%) | B (80%< substrate protein remaining % ≤100%) | A (0% ≤ substrate protein remaining % ≤80%) | A (0% ≤ substrate protein remaining % ≤80%) | A (0% ≤ substrate protein remaining % ≤80%) |
| Cc1ccsc1C1CCN(Cc2ccc3c(c2)C(=O)N(N2CCC(=O)NC2=O)C3=O)CC1 [GT-07306, 2-(2,4-dioxotetrahydropyrimidin-1(2H)-yl)-5-((4-(3-methylthiophen-2-yl)piperidin-1-yl)methyl)isoindoline-1,3-dione] | B (80%< substrate protein remaining % ≤100%) | B (80%< substrate protein remaining % ≤100%) | B (80%< substrate protein remaining % ≤100%) | A (0% ≤ substrate protein remaining % ≤80%) | A (0% ≤ substrate protein remaining % ≤80%) | B (80%< substrate protein remaining % ≤100%) |
| CC1(C)CCC(CN2CC3CC2CN3Cc2ccc3c(c2)CN(N2CCC(=O)NC2=O)C3=O)=C(c2ccc(Cl)cc2)C1 (stereo not drawn) [GT-07329, 1-(5-((5-((4′-chloro-5,5-dimethyl-3,4,5,6-tetrahydro-[1,1′-biphenyl]-2-yl)methyl)-2,5-diazabicyclo[2.2.1]heptan-2-yl)methyl)-1-oxoisoindolin-2-yl)dihydropyrimidine-2,4(1H,3H)-dione] | B (80%< substrate protein remaining % ≤100%) | A (0% ≤ substrate protein remaining % ≤80%) | B (80%< substrate protein remaining % ≤100%) | A (0% ≤ substrate protein remaining % ≤80%) | B (80%< substrate protein remaining % ≤100%) | B (80%< substrate protein remaining % ≤100%) |
| CC1(C)CCC(CN2CC3CCC(C2)N3Cc2ccc3c(c2)CN(N2CCC(=O)NC2=O)C3=O)=C(c2ccc(Cl)cc2)C1 [GT-07330, 1-(5-((3-((4′-chloro-5,5-dimethyl-3,4,5,6-tetrahydro-[1,1′-biphenyl]-2-yl)methyl)-3,8-diazabicyclo[3.2.1]octan-8-yl)methyl)-1-oxoisoindolin-2-yl)dihydropyrimidine-2,4(1H,3H)-dione] | A (0% ≤ substrate protein remaining % ≤80%) | A (0% ≤ substrate protein remaining % ≤80%) | B (80%< substrate protein remaining % ≤100%) | A (0% ≤ substrate protein remaining % ≤80%) | A (0% ≤ substrate protein remaining % ≤80%) | A (0% ≤ substrate protein remaining % ≤80%) |
| CC1(C)CCC(CN2CC3CCC2CN3Cc2ccc3c(c2)CN(N2CCC(=O)NC2=O)C3=O)=C(c2ccc(Cl)cc2)C1 (stereo not drawn) [GT-07331, 1-(5-((5-((4′-chloro-5,5-dimethyl-3,4,5,6-tetrahydro-[1,1′-biphenyl]-2-yl)methyl)-2,5-diazabicyclo[2.2.2]octan-2-yl)methyl)-1-oxoisoindolin-2-yl)dihydropyrimidine-2,4(1H,3H)-dione] | A (0% ≤ substrate protein remaining % ≤80%) | A (0% ≤ substrate protein remaining % ≤80%) | A (0% ≤ substrate protein remaining % ≤80%) | A (0% ≤ substrate protein remaining % ≤80%) | A (0% ≤ substrate protein remaining % ≤80%) | B (80%< substrate protein remaining % ≤100%) |
